In series [1] the test system is production of Abeta1-x peptides in H4 neuroglioma cell line stably expressing human APP. Briefly: H4-APPwt Cell-Based Assay (Assay 2), Abeta1-x production. The note with it: H4 neuroglioma cells expressing human APP, Abeta1-x; read-out: H4-APPwt cell IC50 nM (assay 2). As for the experimental part:
H4-APPwt Cell-Based Assay (Assay 2)
Cellular potency of the compounds of the invention was assessed in an assay monitoring production of Abeta1-x peptides in the H4 neuroglioma cell line (ATCC, Cat. #HTB-148) stably expressing human APP, using an immunoassay such as AlphaLISA (PerkinElmer, Cat.# AL288). Tested compounds were dissolved in DMSO and pre-diluted in the culture medium (DMEM containing 10% FBS and 1% penicillin/streptomycin) to achieve twice the final concentration of the compounds in the assay. Equal volumes of the 2× solutions of the tested compounds and cell suspension were added to a 96-well culture plate, so that each well contained ˜10,000 cells in a final volume of 200 μl. Final concentration of DMSO in the assay was 0.2%. The plates were incubated for 5 hrs at 37° C., 5% CO2 to allow cells to attach to the bottom of the wells in the presence of the tested compounds. Then the media was removed and replaced with fresh media containing tested compounds at the same final concentration. The plates were incubated for 18 hrs at 37° C., 5% CO2. Concentrations of Ab1-x were determined using AlphaLISA immunoassay (PerkinElmer, Cat.# AL288) following manufacturer's protocol. Concentrations of Abeta1-x in the wells containing either DMSO or 10 μM beta-secretase inhibitor (BACE inhibitor IV, EMD Bioscience, Cat. #565788) were used as uninhibited and background controls, correspondingly, for calculating percent inhibition values for each well with the tested compounds.

The subject of series [2] is brain amyloid peptides Aβ1-x. In words: Rat Brain Aβ Lowering Assay (Assay 5). The series is classed as in vivo. As to conditions: 3 hrs after dosing. The procedure: Rat Brain Aβ Lowering Assay (Assay 5)
The animals were sacrificed 3 hrs after dosing, and brains were excised, dissected into cerebellum and left and right cerebra and flash-frozen in liquid nitrogen.
The cerebrum was homogenized (5 volumes per weight) in 20 mM Tris-HCL, pH 8.5, 0.2% Triton-X100 supplemented with protease inhibitors (complete, Roche Applied Science) at 4° C. using a glass Dounce homogenizer. The homogenate was centrifuged at 120,000×g for 60 min at 4° C., and the supernatant was collected and analyzed for Ab1-x using immunoassay with chemiluminescent detection (Meso-Scale Discovery, Rockville, Md. (MSD)).
Streptavidin 96-well plates (MSD) were pre-blocked with 5% Blocker A solution (MSD) for 1 hr at rt on an orbital shaker and washed 4 times with phosphate buffered saline (PBS). The wells were pre-coated with 20 ng/well of biotinylated antibody SIG-39155 (Clone M3.2, specific for amino acids 10-15 of the rodent Aβ) for 1 hr at rt and washed 4 times with PBS. For Aβ1-x analysis, 25 μl of either the cleared brain lysates or Aβ1-40 standards (8-500 pg/ml, with 2× increment) were incubated for 1 hr at rt with constant shaking. The wells were washed 4 times with PBS, and 25 μl of the detection antibody (Sulfo-TAG labeled anti-Aβ40 antibody supplied by MSD) was added and incubated for 1 hr at rt. After 4 washes with PBS, 150 μl of the chemiluminescence detection reagent (Read Buffer T, MSD) was added, and the plate was read on an MSD Sector Imager 6000 instrument. The calibration curve was fit into a non-linear four-parameter regression model, and the Aβ1-x concentrations were calculated for each well containing the cleared brain lysates. The percent of Aβ lowering was calculated based on the difference with the average Aβ concentration obtained for the brains from the animals treated with vehicle alone.

The target of series [3] is hERG (Homo sapiens (Human), UniProt Q12809). Briefly: hERG-Channel Assay (Assay 3), whole-cell patch clamp. The series is classed as cell-based. As to conditions: human, HEK293 cells stably transfected with hERG, pH 7.4; 10 μM, HEK293 cells transfected with hERG. From the text: hERG-Channel Assay (Assay 3)
HEK (human embryonic kidney) 293 cells were stably transfected with hERG cDNA.
Cells were superfused with a bath solution containing (mM): NaCl (137), KCl (4.0), MgCl2 (1.0), CaCl2 (1.8), Glucose (10), HEPES (10), pH 7.4 with NaOH. Patch pipettes were made from borosilicate glass tubing using a horizontal puller and filled with pipette solution containing (mM): K-aspartate (130), MgCl2 (5.0), EGTA (5.0), K2ATP (4.0), HEPES (10.0), pH 7.2 with KOH. Resistance of the microelectrodes was in the range between 2 and 5 MΩ.
Membrane currents were recorded using an EPC-10 patch clamp amplifier and PatchMaster software. hERG-mediated membrane currents were recorded at 35° C., using the whole-cell configuration of the patch-clamp technique. Transfected HEK293 cells were clamped at a holding potential of −60 mV and hERG-mediated inactivating tail currents were elicited using a pulse pattern with fixed amplitudes (activation/inactivation: 40 mV for 2000 ms; recovery: −120 mV for 2 ms; ramp to 40 mV in 2 ms; inactivating tail current: 40 mV for 50 ms) repeated at 15 s intervals. During each inter-pulse interval 4 pulses scaled down by a factor of 0.2 were recorded for a P/n leak subtraction procedure. Rs compensation was employed up to a level that safely allowed recording devoid of ringing.
The different concentrations of the test compound were applied sequentially on each of the different cells investigated. A steady state level of baseline current was measured for at least 6 sweeps prior to the application of the first test compound concentration.
The test compound was dissolved in DMSO to yield a master stock solution which was diluted further in DMSO to stock solutions needed for the lower concentrations. Final dilutions in extracellular buffer were prepared freshly from these stocks by a 1:1000 dilution step each before starting the experiments.
Peak current amplitudes were measured 3 ms after the ramp to +40 mV. For baseline and each concentration the peak currents of the three last sweeps before application of the next concentration were averaged. Residual currents (I/I0) were calculated for each cell as the fraction of actual average peak current and average baseline peak current. Results are presented as percent (%) inhibition (1−I/I0)*100% at 10 μM.
(hERG is a cardiac potassium channel; its block is linked to QT prolongation.)

hERG, sequence (Q12809 whole entry): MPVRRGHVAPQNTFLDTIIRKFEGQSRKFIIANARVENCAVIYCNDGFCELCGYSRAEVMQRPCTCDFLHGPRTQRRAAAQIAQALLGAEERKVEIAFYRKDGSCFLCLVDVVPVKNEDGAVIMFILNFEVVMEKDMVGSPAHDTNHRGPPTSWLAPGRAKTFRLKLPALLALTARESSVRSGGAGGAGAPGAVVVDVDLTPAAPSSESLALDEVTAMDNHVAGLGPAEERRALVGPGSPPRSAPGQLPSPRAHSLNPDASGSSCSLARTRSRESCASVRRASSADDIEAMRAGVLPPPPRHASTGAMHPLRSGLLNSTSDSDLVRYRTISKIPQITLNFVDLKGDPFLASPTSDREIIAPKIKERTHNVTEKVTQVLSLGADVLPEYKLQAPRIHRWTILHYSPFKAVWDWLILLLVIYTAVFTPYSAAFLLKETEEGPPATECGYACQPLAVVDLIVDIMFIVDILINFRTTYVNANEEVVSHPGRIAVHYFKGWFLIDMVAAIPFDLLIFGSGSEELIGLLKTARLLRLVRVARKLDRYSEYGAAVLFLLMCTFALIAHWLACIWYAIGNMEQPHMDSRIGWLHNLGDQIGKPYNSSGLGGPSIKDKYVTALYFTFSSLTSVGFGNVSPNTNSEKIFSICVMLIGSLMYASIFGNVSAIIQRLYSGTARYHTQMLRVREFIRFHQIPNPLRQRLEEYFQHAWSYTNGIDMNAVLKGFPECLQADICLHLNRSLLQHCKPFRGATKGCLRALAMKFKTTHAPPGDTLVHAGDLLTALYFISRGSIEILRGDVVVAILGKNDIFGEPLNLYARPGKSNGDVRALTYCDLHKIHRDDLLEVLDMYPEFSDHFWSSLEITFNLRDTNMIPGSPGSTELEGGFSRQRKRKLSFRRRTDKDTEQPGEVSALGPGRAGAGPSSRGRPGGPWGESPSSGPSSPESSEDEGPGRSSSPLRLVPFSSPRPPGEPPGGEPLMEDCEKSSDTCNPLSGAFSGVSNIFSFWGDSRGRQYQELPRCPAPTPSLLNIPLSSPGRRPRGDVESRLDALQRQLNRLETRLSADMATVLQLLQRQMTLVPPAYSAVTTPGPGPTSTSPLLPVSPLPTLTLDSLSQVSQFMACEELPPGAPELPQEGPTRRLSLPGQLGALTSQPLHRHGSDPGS

Regarding `CO[C@H]1CC[C@@]2(Cc3ccc(C#N)cc3[C@]23N=C(N)N(CC2(C)COC2)C3=O)C[C@@H]1C` [Example 8], the concentration for half-maximal inhibition (IC50) in series [1] is 0.49 nM. Further, in series [2] (single oral dose 25 mg/kg), the “% Aβ Reduction” value stood at 37%. This compound also gave an inhibition at 10 µM in series [3] of 16%.
The like results for `CO[C@H]1[C@H](C)C[C@@]2(Cc3ccc(C#N)cc3[C@]23N=C(N)N(C2COC2)C3=O)C[C@@H]1C` [Example 12] were, in that order, 1.1 nM, 39% and 11%.
For the compound `CC[C@@H]1C[C@]2(CC[C@H]1OC)Cc1ccc(C#N)cc1[C@]21N=C(N)N(CC2(F)CCOCC2)C1=O` [Example 4], in series [1], the half-maximal inhibitory concentration (IC50) worked out at 0.28 nM. The “% Aβ Reduction” value in series [2] (single oral dose 25 mg/kg) came out at 75%. This compound also gave an inhibition at 10 µM in series [3] of 0%.
Take `CO[C@H]1[C@H](C)C[C@@]2(Cc3ccc(C#N)cc3[C@]23N=C(N)N(C[C@@H]2COCCO2)C3=O)C[C@@H]1C` [Example 21]: in series [1], the IC50 came to 0.48 nM. The “% Aβ Reduction” value in series [2] (single oral dose 50 mg/kg) is on record as 59%. For the same compound, testing at 10 µM in series [3] gave an inhibition of 24%.
In the case of `CO[C@H]1[C@H](C)C[C@@]2(Cc3ccc(C#N)cc3[C@]23N=C(N)N(CC2(F)CCOCC2)C3=O)C[C@@H]1C` [Example 23], the IC50 in series [1] stood at 0.18 nM. In addition, the “% Aβ Reduction” value in series [2] (single oral dose 25 mg/kg) is 68%. In series [3], this compound had an inhibition at 10 µM of 16%.
Regarding `CO[C@H]1[C@H](C)C[C@@]2(Cc3ccc(C#N)cc3[C@]23N=C(N)N(C[C@@H]2CCO2)C3=O)C[C@@H]1C` (stereo in doubt) [Example 18], in series [1], the IC50 came to 1.02 nM. In addition, in series [2] (single oral dose 25 mg/kg), the “% Aβ Reduction” value was 56%. In addition, in series [3], the inhibition at 10 µM came to 17%.
Turning to `CO[C@H]1[C@H](C)C[C@@]2(Cc3ccc(C#N)cc3[C@]23N=C(N)N(C[C@@H]2CCCO2)C3=O)C[C@@H]1C` [Example 15], the half-inhibitory concentration (IC50) in series [1] came out at 0.11 nM. Moreover, the “% Aβ Reduction” value in series [2] (single oral dose 25 mg/kg) is 62%. The compound further had an inhibition at 10 µM in series [3] of 11%.
With `CO[C@H]1[C@H](C)C[C@@]2(Cc3ccc(C#N)cc3[C@]23N=C(N)N(C[C@H]2CCCO2)C3=O)C[C@@H]1C` [Example 14], the IC50 in series [1] stood at 0.12 nM. Moreover, in series [2] (single oral dose 25 mg/kg), the “% Aβ Reduction” value was found to be 67%. Moreover, in series [3], the inhibition at 10 µM was found to be 20%.
Take `CO[C@H]1CC[C@@]2(Cc3ccc(C#N)cc3[C@]23N=C(N)N(Cc2ccncn2)C3=O)C[C@@H]1C` [Example 9]: the IC50 in series [1] was 1.9 nM. For the same compound, the “% Aβ Reduction” value in series [2] (single oral dose 25 mg/kg) was found to be 37%. In series [3], 10 µM produced 16% inhibition.
The matching figures for `CO[C@H]1[C@H](C)C[C@@]2(Cc3ccc(C#N)cc3[C@]23N=C(N)N(CC(C)(C)F)C3=O)C[C@@H]1C` [Example 17]: 0.89 nM, 70% and 12%.
For the compound `CO[C@H]1[C@H](C)C[C@@]2(Cc3ccc(C#N)cc3[C@]23N=C(N)N(CC2COC2)C3=O)C[C@@H]1C` [Example 13], the IC50 in series [1] was 0.92 nM. In series [2] (single oral dose 30 mg/kg), the “% Aβ Reduction” value is given as 47%. Moreover, the inhibition at 10 µM in series [3] turned out to be 18%.
Turning to `CO[C@H]1[C@H](C)C[C@@]2(Cc3ccc(C#N)cc3[C@]23N=C(N)N(C[C@H]2COCCO2)C3=O)C[C@@H]1C` [Example 22], the IC50 in series [1] is 0.26 nM. Moreover, the “% Aβ Reduction” value in series [2] (single oral dose 12.5 mg/kg) is given as 45%. The inhibition at 10 µM in series [3] was found to be 9%.
As to `CC[C@@H]1C[C@@]2(Cc3ccc(C#N)cc3[C@]23N=C(N)N(CC(C)(C)F)C3=O)C[C@H](C)[C@H]1OC` [Example 26], the IC50 in series [1] came out at 0.2 nM. Further, the “% Aβ Reduction” value in series [2] (single oral dose 25 mg/kg) worked out at 71%. This compound came in with an inhibition at 10 µM in series [3] of 8%.
On to `CC[C@@H]1C[C@]2(CC[C@H]1OC)Cc1ccc(C#N)cc1[C@]21N=C(N)N(CC2CCOCC2)C1=O` [Example 2], for which the IC50 in series [1] stood at 0.29 nM. The “% Aβ Reduction” value in series [2] (single oral dose 30 mg/kg) is listed as 42%. This compound also displayed an inhibition at 10 µM in series [3] of 22%.

Broadly, the IC50 is the concentration that gives 50% inhibition. As a reminder, the inhibition is the share of the control response that was lost under treatment. A high value points to strong suppression.

The record behind these values is patent US8981112B2, “Inhibitors of β-secretase” (Boehringer Ingelheim International GmbH, priority 2012, dated 2015).
